Here are results for 9 molecules from patent US7144893B2, “4-aryl quinols and analogs thereof as therapeutic agents” (Cancer Research Technology Limited, priority 2001, dated 2006).

The target in data set [1] is thioredoxin (Homo sapiens, UniProt P10599). As to conditions: irreversible inhibitor of thioredoxin; cited from earlier work.
The subject of data set [2] is HT29 colon carcinoma. The data set is described as follows: Growth inhibitory assay (MTT, 72 hr). In kind it is cell-based. As to conditions: Homo sapiens, HT-29, 72 hr exposure. How it is done:
(§1) Compounds were prepared as 10 mM top stocks, dissolved in DMSO, and stored at 4° C., protected from light, for a maximum period of 4 weeks. Human derived cell lines (HCT 116, HT29 colon carcinoma; MCF-7 (ER+), MDA 468 (ER−) breast carcinoma; A549 lung adenocarcinoma) were routinely cultivated at 37° C. in an atmosphere of 5% CO2 in RPMI 1640 medium supplemented with 2 mM L-glutamine and 10% fetal calf serum and subcultured twice weekly to maintain continuous logarithmic growth. Cells were seeded into 96-well microtiter plates at a density of 5×10^3 per well and allowed 24 hr to adhere before drugs were introduced (final concentration 0.1 nM–100 μM, n=8). Serial drug dilutions were prepared in medium immediately prior to each assay. At the time of drug addition and following 72 hr exposure, MTT was added to each well (final concentration 400 µg/mL). Incubation at 37° C. for 4 hr allowed reduction of MTT by mitochondrial dehydrogenase to an insoluble formazan product. Well contents were aspirated and formazan solubilized by addition of DMSO:glycine buffer (pH 10.5) (4:1). Absorbance was measured using an Anthos Labtec systems plate reader at 550 nm, and used as a measure of cell viability; thus cell growth or drug toxicity was determined.

The subject of data set [3] is A549 lung adenocarcinoma. Nature of the data set: Growth inhibitory assay (MTT, 72 hr). In kind it is cell-based. The settings on record: Homo sapiens, 72 hr exposure. On the procedure: as §1
Data set [4] relates to HCT 116 colon carcinoma. The data set is described as follows: Growth inhibitory assay (MTT, 72 hr). In kind it is cell-based. As to conditions: Homo sapiens, 72 hr exposure. How it is done: as §1
The subject of data set [5] is renal sub-panel. Nature of the data set: cells. The class given is cell-based. The settings on record: Homo sapiens, 60 cell, read-out: mean LC50 in renal sub-panel. On the procedure: (§2) Compounds were tested for in vitro activity (48 h drug exposure) across 60 human cancer cell lines through the National Cancer Institute (NCI) Developmental Therapies Screening Program (Boyd et al., 1995).

Data set [6] deals with colon sub-panel. The data set is described as follows: cells. The class given is cell-based. The settings on record: Homo sapiens, SW-620, read-out: mean LC50 in colon sub-panel. On the procedure:
as §2

The test system of data set [7] is 60 human cancer cell lines. Nature of the data set: cells. The class given is cell-based. As to conditions: Homo sapiens; for CC50: 48 h, read-out: mean LC50. On the procedure:
as §2

The subject of data set [8] is Mycobacterium tuberculosis H37Rv (ATCC 27294). The data set is described as follows: Microplate Alamar Blue Assay (MABA), TAACF primary screening. As to conditions: lowest concentration effecting a reduction in fluorescence of 90% relative to controls. In kind it is cell-based. The source says:
Compounds were submitted to the Tuberculosis Antimicrobial Acquisition and Coordinating Facility (TAACF) for testing as antimycobacterial drugs.
Compounds were subjected to in vitro evaluation for antimycobacterial activity.
See, for example, Collins et al., 1997.

Data set [9] concerns MDA 468 (ER−) breast carcinoma. Nature of the data set: Growth inhibitory assay (MTT, 72 hr). In kind it is cell-based. The settings on record: Homo sapiens, 72 hr exposure. On the procedure: as §1
Data set [10] has as its system MCF-7 (ER+) breast carcinoma. Nature of the data set: Growth inhibitory assay (MTT, 72 hr). In kind it is cell-based. As to conditions: Homo sapiens, MCF7, 72 hr exposure. How it is done: as §1
The conditions of data set [11]: bovine, serum; cited from earlier work.
The mark [12] stands for this setting: mean over NCI 60 cell panel, 48 h drug exposure.

≈ marks a conversion by molar mass, not a printed value.

Chain of thioredoxin (P10599 whole entry): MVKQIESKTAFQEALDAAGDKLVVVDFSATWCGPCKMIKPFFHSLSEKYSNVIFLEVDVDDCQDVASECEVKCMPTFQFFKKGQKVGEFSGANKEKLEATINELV

In the case of `CN(C)CC1CCC(CN(C)C)C1=O` (stereo not shown) [NSC-131233, 2,5-bis[(dimethylamino)methyl]cyclopentanone], the Ki in [1] was 1000 nM.
As usually defined, the IC50 is the concentration needed to halve the response being measured. High values mean a need for much substance, low ones inhibition by little substance. By LC50 is commonly meant the concentration that kills 50% of the test population. Broadly, the GI50 is the concentration at which growth is held to half of that of the control. Lower therefore signals greater sensitivity of the cells. In general, MIC refers to the lowest concentration found to suppress growth. A lower MIC goes with a more susceptible organism. On to `O=C1C=CC(O)(c2cc3ccccc3o2)C=C1` [Q01, 4-(Benzofuran-2-yl)-4-hydroxy-2,5-cyclohexadien-1-one], for which the IC50 in data set [2] worked out at 419 nM; in data set [3], 2300 nM; in data set [4], 159 nM. Also, in data set [5], the mean LC50 turned out to be 2400 nM. Moreover, the LC50 in data set [6] was 3660 nM. Also, the CC50 in data set [7] (60 cell) is 7240 nM. The molecule also yielded a GI50 in data set [7] (setting [12]) of 520 nM. In [8], the MIC stood at 1.56 µg/mL (≈ 6.9 µM).
Consider `O=C1C=CC(O)(c2cc3ccccc3s2)C=C1` [Q02, 4-(Benzothiophen-2-yl)-4-hydroxy-2,5-cyclohexadien-1-one], for which the IC50 was 552 nM in [2], 2430 nM in [3] and 169 nM in data set [4]. The mean LC50 in data set [5] is 1400 nM. Also, the LC50 in data set [6] worked out at 1690 nM. For the same molecule, in [7] (60 cell), the CC50 amounted to 5750 nM. Also, the GI50 was determined as 550 nM in data set [7] (60 cell, Table 5) and 250 nM in data set [7] (setting [12]).
One may read the melting point as the temperature, or range, at which the solid turns liquid. The molecule `O=C1C=CC(O)(c2cc3ccccc3[nH]2)C=C1` [Q03, 4-(Indol-2-yl)-4-hydroxy-2,5-cyclohexadien-1-one] showed a melting point of 133 °C. This molecule displayed an IC50 in data set [2] of 1760 nM. In [3], this molecule had a half-maximal inhibitory concentration (IC50) of 6130 nM. In [4], this molecule showed an IC50 of 2840 nM. The GI50 in [7] (setting [12]) was 1410 nM. In data set [8], this molecule had an MIC of 3.13 µg/mL (≈ 13.9 µM).
In the case of `O=C1C=CC(O)(c2nc3ccccc3o2)C=C1` [Q04, 4-(Benzoxazol-2-yl)-4-hydroxy-2,5-cyclohexadien-1-one], the IC50 amounted to 290 nM in [2]; 350 nM in data set [9]; 2330 nM in [3]; 180 nM in data set [4]; 390 nM in [10]. The mean LC50 in data set [5] was found to be 1640 nM. Moreover, the median lethal concentration (LC50) in data set [6] is 1130 nM. In addition, in [7] (60 cell), the CC50 amounted to 7080 nM. The molecule further showed a GI50 in [7] (setting [12]) of 460 nM. For the same molecule, it took 1.56 µg/mL (≈ 6.87 µM) to inhibit growth in [8] (MIC).
The molecule `O=C1C=CC(O)(c2nc3ccccc3[nH]2)C=C1` [Q07, 4-(Benzimidazol-2-yl)-4-hydroxy-2,5-cyclohexadien-1-one] displayed a melting point of 234 °C. This molecule also returned an IC50 in data set [2] of 504 nM. Besides, in data set [9], the IC50 was determined as 353 nM. This molecule also registered an IC50 in data set [4] of 210 nM. The same molecule gave an IC50 in data set [10] of 509 nM. This molecule also came in with a GI50 in data set [7] (setting [12]) of 1100 nM. Further, inhibition of growth in data set [8] (MIC) required 3.13 µg/mL (≈ 13.8 µM).
Consider `O=C1C=CC(OC(=O)c2ccc([N+](=O)[O-])cc2)(c2nc3ccccc3s2)C=C1` [Q34, 4-(para-nitrobenzoyloxy)-4-(benzothiazol-2-yl)-2,5-cyclohexadien-1-one], for which the melting point turned out to be 138 °C.
Take `COc1ccc(C(=O)OC2(c3nc4ccccc4s3)C=CC(=O)C=C2)cc1` [Q35, 4-(para-methoxybenzoyloxy)-4-(benzothiazol-2-yl)-2,5-cyclohexadien-1-one]: the melting point was 137 °C.
Usually half-life stands for how long it takes for the measured level to halve. Turning to `O=CN/C=C/c1cc(O)ccc1O` [erbstatin], the half-life in data set [11] is < 30 min.
